# In patent US20110009351A1, “SCREENING ASSAY TO IDENTIFY CORRECTORS OF PROTEIN TRAFFICKING DEFECTS” (Traffick Therepeutics Inc., priority 2007, published 2011):
# “Also recorded” adds a separate entry of the source. Counter-ions that a name gives are not always drawn.
# Tests used:
# F508del CFTR = biological target: T1, F508del CFTR (Homo sapiens, UniProt P13569, DEL508-508); experiment: YFP fluorescence quenching functional assay (iodide influx), HEK293 cells with F508del CFTR and halide sensitive YFP; format: cell-based; conditions: 10 μM, 24 h
# T1 construct: expressed in transfected cells; host or cells: HEK293 Griptite cells stably expressing F508del CFTR, transiently transfected with halide-sensitive eYFP
# T1 sequence (P13569 with tags, fused parts or gaps DEL508-508): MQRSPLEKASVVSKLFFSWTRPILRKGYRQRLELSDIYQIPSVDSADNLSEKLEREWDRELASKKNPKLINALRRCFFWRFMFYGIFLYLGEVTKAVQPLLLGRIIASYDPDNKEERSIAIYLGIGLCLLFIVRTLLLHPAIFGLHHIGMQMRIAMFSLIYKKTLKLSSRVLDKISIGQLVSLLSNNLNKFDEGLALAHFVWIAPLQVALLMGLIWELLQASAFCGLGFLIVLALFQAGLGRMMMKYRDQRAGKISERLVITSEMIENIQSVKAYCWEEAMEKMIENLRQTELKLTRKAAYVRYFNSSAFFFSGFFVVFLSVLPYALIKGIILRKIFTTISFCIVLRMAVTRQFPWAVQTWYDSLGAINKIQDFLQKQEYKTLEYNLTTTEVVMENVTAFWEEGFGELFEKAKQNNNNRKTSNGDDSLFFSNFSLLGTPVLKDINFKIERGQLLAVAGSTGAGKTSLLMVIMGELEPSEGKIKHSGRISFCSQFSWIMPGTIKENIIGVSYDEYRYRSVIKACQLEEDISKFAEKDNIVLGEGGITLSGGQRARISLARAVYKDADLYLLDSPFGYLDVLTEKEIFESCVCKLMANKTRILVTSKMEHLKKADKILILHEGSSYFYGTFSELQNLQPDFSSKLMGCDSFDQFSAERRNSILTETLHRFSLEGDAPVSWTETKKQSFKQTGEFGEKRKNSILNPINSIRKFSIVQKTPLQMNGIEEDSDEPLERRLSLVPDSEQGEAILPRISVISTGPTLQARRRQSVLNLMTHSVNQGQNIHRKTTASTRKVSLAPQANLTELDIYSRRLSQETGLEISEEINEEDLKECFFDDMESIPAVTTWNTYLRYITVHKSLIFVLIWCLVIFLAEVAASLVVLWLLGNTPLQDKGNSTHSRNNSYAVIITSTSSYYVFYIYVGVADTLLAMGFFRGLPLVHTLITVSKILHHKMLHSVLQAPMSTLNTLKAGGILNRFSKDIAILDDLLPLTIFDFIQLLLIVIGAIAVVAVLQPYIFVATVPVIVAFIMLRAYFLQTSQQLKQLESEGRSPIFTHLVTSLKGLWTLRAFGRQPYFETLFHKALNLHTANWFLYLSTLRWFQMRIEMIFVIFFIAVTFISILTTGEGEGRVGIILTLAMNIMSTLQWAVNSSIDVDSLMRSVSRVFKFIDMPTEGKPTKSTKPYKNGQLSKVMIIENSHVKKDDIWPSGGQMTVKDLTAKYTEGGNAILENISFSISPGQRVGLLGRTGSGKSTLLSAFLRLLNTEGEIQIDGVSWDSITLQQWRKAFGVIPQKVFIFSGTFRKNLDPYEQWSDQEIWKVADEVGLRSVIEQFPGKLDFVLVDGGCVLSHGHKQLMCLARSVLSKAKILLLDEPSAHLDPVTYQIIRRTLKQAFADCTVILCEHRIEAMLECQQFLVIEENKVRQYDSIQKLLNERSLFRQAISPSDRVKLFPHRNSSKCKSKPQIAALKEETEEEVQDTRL
# Procedure, shortened: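 HEK293 Griptite cells stably expressing F508del CFTR, transiently transfected with halide-sensitive eYFP, treated 24 h with 10 μM compound in triplicate, then stimulated 20 min with 25 μM forskolin, 45 μM IBMX and 50 μM genistein. YFP quench after 50 mM iodide imaged 15 times over 40 s on 150-300 cells/well.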
# ΔF508-CFTR [1] = biological target: T2, ΔF508-CFTR (Mus musculus, UniProt P26361, DEL508-508); experiment: salivary secretion assay in ΔF508-CFTR mice; format: in vivo
# T2 construct: from tissue; host or cells: ileal mucosa of homozygous ΔF508 mice (A11 ex vivo, A12 after gavage); salivary secretion in the living mouse (A13)
# T2 sequence (P26361 with tags, fused parts or gaps DEL508-508): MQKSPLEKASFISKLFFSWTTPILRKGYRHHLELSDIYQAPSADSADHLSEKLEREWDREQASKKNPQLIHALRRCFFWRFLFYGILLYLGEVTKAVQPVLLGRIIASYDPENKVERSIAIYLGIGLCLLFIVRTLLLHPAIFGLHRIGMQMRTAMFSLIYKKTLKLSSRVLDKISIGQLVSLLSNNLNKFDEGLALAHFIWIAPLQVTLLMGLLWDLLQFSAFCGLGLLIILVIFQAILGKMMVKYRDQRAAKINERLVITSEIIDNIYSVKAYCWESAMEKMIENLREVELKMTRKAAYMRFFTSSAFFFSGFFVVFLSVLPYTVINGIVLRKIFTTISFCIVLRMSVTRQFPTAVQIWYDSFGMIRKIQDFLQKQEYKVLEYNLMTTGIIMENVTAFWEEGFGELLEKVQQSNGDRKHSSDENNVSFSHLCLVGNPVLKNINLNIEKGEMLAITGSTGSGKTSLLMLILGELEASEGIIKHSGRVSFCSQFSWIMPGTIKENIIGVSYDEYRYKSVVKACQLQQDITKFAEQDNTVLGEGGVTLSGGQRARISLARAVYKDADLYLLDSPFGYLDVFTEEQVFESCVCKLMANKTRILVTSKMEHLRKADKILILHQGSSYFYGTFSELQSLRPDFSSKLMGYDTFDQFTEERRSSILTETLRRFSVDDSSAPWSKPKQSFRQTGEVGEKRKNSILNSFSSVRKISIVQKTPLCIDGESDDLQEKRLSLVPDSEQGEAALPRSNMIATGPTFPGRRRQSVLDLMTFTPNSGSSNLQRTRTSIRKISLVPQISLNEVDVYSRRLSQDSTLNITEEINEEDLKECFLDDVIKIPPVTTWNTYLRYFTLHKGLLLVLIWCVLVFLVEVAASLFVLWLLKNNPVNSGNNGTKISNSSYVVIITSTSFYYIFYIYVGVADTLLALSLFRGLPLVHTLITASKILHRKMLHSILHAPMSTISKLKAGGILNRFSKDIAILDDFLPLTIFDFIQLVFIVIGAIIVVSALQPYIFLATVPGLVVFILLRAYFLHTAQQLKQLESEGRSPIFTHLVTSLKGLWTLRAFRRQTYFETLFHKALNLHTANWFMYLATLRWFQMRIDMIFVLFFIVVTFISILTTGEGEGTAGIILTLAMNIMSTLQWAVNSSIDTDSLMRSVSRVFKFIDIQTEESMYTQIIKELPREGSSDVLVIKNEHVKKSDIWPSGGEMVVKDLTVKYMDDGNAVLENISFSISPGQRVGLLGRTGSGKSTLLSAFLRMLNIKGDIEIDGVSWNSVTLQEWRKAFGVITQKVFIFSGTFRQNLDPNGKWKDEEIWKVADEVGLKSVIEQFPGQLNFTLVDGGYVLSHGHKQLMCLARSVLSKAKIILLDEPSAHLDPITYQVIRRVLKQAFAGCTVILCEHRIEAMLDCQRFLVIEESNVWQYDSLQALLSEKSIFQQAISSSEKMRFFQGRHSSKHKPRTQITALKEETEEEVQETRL
# Method: The procedure followed those recently described by Best & Quinton (Best and Quinton, 2005). Homozygous Δ508-CFTR mice (CFTR^tm1 Eur) and wild-type mice of the same strain were 10-12 weeks old and weighed 20-25 g. They were fed once a day by gavage with saline containing glafenine (50 mg/kg) or vehicle alone (0.1% DMSO) for 2 days. The mice were anaesthetized with ketamine and diazepam on the day of the experiment, then pretreated with a subcutaneous injection of 1 mM atropine into the left cheek. Small strips of Whatman filter paper were placed inside the previously injected cheek for ˜4 min to absorb any salivary secretions. A solution containing 100 μM isoprenaline and 1 mM atropine was then injected into the left cheek at the same site to induce secretion at time zero and the filter paper was replaced every minute for 30 minutes. Each piece of filter paper was immediately placed and sealed in a pre-weighed vial and the time of removal was recorded. The rate of salivary secretion per min and total amount were normalized to the mass of the mouse in grams.
# [2] = clinical use; cited from earlier work
# ΔF508-CFTR [3] = biological target: ΔF508-CFTR (Homo sapiens, UniProt P13569, DEL508-508); experiment: immunoblot and densitometry of mature band C, BHK cells expressing ΔF508-CFTR; format: cell-based; set-up: which was then ligated into full length pNUT-CFTR linearized using Hpa1 and Pml1; expressed in transfected cells; conditions: 10 μM, 24 h
# ΔF508-CFTR (Homo sapiens, UniProt P13569, DEL508-508), sequence (P13569 with tags, fused parts or gaps DEL508-508): as the sequence (P13569 with tags, fused parts or gaps DEL508-508) above
# Method: Cell lysates were quantitated by Bradford assay (BioRad) and separated by SDS-PAGE (6% polyacrylamide gels) and analyzed by Western blotting. Western blots were blocked using 5% skimmed milk in PBS, then probed overnight at 4° C. with a primary anti-CFTR antibody at a dilution of 1:1000 monoclonal mouse antibody (clone M3A7, Chemicon). The blots were washed four times in PBS before the addition of the secondary HRP-conjugated anti-mouse antibody, at a dilution of 1:5000 (Amersham) for one hour at room temperature. The blots were washed five times in PBS and probed for chemiluminescence (Pierce). All samples were run with equal protein loading as determined using the Bradford assay (Biorad). Densitometry of the immunoblots was performed using the ImageJ program (National Institutes of Health).
# Total protein was quantified in cell lysates using the Bradford assay (BioRad, Hercules, Calif.), separated using SDS-PAGE (6% polyacrylamide gels), and analyzed by Western blotting as described previously (Robert et al., 2007). Western blots were blocked with 5% skimmed milk in PBS and probed overnight at 4° C. with a monoclonal primary anti-CFTR antibody (clone M3A7, Chemicon, Temecula, Calif.) diluted 1:1000. The blots were washed four times in PBS before adding the secondary HRP-conjugated anti-mouse antibody at a dilution of 1:5000 (Amersham, Piscataway, N.J.) for one hour at room temperature, then washed again five times in PBS and visualized using chemiluminescence (Pierce, Rockford, Ill.). The relative intensity of each CFTR glycoform (band B or band C) was estimated by densitometry using the ImageJ software and reported as a percentage of the total CFTR in the same lane (i.e. B+C).
smiles,measurement,setting,value
"O=C(OCC(O)CO)c1ccccc1Nc1ccnc2cc(Cl)ccc12 (stereo not shown) [Glafenine hydrochloride, 2-[(7-chloro-4-quinolinyl)amino]benzoic acid 2,3-dihydroxypropyl ester]",functional correction in YFP quenching assay,F508del CFTR,test positive in each case; also recorded: enhanced the cAMP-stimulated iodide influx
same,remaining activity at 10 µM,"F508del CFTR; HEK293, nc = 100% pc = 69.2, read-out: % YFP quench",80%
same,restored share of the total salivary response,ΔF508-CFTR [1]; 50 mg glafenine per kg,15%
same,maximum rate of saliva production relative to WT mice,"ΔF508-CFTR [1]; 50 mg/kg by gavage, 2 days, isoprenaline with atropine, control CF mice 5%",15%
same,concentration achieved clinically in plasma,[2],10 µM
same,band C glycoform as share of the CFTR signal (band B+band C),ΔF508-CFTR [3],approximately 38%
same,increase of band C glycoform compared to untreated control,ΔF508-CFTR [3],28.4%
